Reference: patent US11180771B2 (priority 2016, dated 2021)

Key:
[1] = test system: weeds (all species): Echinochloa species, Schoenoplectus mucronatus, Cypres difformis, Heteranthera limosa, Monochoria vaginalis; test: Preflood oxyfluorfen rate test in water-seeded production system (Table 5), percent weeds; format: in vivo; settings: treatments before flooding; mutant lines containing ROXY
Protocol: Oxyfluorfen resistant rice lines containing mutant allele ROXY, including 17Y3000, 14G3, 14G4, and 15G4, and the oxyfluorfen susceptible parent M-206 were tested at different rates of oxyfluorfen applied preflood in a water-seeded production system to assess seedling vigor, percent weeds, and yield as shown in Table 5. The design was a randomized complete block with 4 replication and 4 rates of oxyfluorfen (GoalTender®) herbicide. The plot size was 10×20 ft. The percent weeds (all species) were visually determined at 50 days after seeding in the plots and the plots were harvested at maturity. The weed species included a mixture of predominant weeds present including barnyard and late watergrass Echinochloa species, rice field bulrush Schoenoplectus mucronatus, small flower umbrella Cypres difformis, ducksalad Heteranthera limosa, and monochoria Monochoria vaginalis.

[2] = test system: weeds (all species): Echinochloa species, Schoenoplectus mucronatus, Cypres difformis, Heteranthera limosa, Monochoria vaginalis; test: Drill-seeded herbicide treatment test (Table 6), percent weeds; format: in vivo; settings: including combinations with Prowl and Clincher, lines with mutant ROXY allele
Protocol: Oxyfluorfen resistant rice lines containing mutant allele ROXY, including 17Y3000, 14G3, 14G4, and 15G4, and the oxyfluorfen susceptible parent M-206 without ROXY were tested by applying oxyfluorfen at different rates and times, and in combination with other herbicides in a drill-seeded production system and evaluated for percent weeds and yield as shown in Table 6. Preflush applications were made directly after drill-seeding just before the first irrigation of the basin and preflood applications occurred just before a permanent flood of basin at about 25 days after seeding. The design was a randomized complete block with 2 replication and treatments of oxyfluorfen (GoalTender®) and combinations of oxyfluorfen with the herbicides Prowl® and Clincher®. The active ingredient of Prowl® is pendimethalin (N-(1-ethylpropyl)-3,4-dimethyl-2,6-dinitrobenzenamine). Clincher® is an herbicide for selective postemergence grass weed control in rice with the active ingredient cyhalofop (2-[4-(4-cyano-2-fluorophenoxy) phenoxy] propanoic acid, butyl ester, (R)). The plot size was 6.4×20 ft. The percent weeds (all species) were visually determined at 50 days after seeding in the plots and the plots were harvested at maturity. […]

`CCOc1cc(Oc2ccc(C(F)(F)F)cc2Cl)ccc1[N+](=O)[O-]` [Oxyfluorfen, oxyfluorfen] was tested, and the “weed control” value [1] was “high levels of weed control” and the “weed control” value [2] was “high levels of weed control”.
